Data from patent US11634451B2, “Method for the site-specific enzymatic labelling of nucleic acids in vitro by incorporation of unnatural nucleotides” (The Scripps Research Institute, priority 2013, dated 2023).

How the values were obtained:
[1] = PCR incorporation of d5SICS α-thiotriphosphate opposite dNaM; format: biochemical; details: standard PCR
Method: The amplification efficiency and fidelity of incorporation of d(5SICS-αS)TP is greater than 99% and virtually identical to results obtained with d5SICS. To functionalize this unnatural base pair, we reacted the site-specifically incorporated phosphorothioate bond with iodoacetyl-PEG2-biotin to label the DNA duplex with the biotin functionality.^8 To characterize this site-specific adduct, we incubated it in the presence of streptavidin and then quantified the functionalization by gel shift assay. We were able to convert 60-70% of the phosphorothioate bond to the functionalized derivative, which is a standard efficiency (70%) for labeling protocols previously reported in literature (See Fidanza, J. A.; Ozaki, H.; McLaughlin, L. W., Site-specific labeling of DNA sequences containing phosphorothioate diesters. J. Am. Chem. Soc. […], 114 (14), 5509-5517.). These conjugated derivatives show high stability under conditions typical for heat denaturation of DNA duplexes, i.e. at 50° C. overnight within the range of pH 6.0-8.3 (<10% decomposition), as well as for at 95° C. for 3 minutes at pH 8.3 (<5% decomposition). We envision that the phosphorothioate strategy can be equally well employed with other unnatural base pairs, including d5SICS-dMMO2 and d5SICS-dNaM.

[2] = target: T7 RNA polymerase (Escherichia phage T7, UniProt P00573); details: ribonucleotide triphosphates, FIG. 7
Chain of T7 RNA polymerase (P00573 whole entry): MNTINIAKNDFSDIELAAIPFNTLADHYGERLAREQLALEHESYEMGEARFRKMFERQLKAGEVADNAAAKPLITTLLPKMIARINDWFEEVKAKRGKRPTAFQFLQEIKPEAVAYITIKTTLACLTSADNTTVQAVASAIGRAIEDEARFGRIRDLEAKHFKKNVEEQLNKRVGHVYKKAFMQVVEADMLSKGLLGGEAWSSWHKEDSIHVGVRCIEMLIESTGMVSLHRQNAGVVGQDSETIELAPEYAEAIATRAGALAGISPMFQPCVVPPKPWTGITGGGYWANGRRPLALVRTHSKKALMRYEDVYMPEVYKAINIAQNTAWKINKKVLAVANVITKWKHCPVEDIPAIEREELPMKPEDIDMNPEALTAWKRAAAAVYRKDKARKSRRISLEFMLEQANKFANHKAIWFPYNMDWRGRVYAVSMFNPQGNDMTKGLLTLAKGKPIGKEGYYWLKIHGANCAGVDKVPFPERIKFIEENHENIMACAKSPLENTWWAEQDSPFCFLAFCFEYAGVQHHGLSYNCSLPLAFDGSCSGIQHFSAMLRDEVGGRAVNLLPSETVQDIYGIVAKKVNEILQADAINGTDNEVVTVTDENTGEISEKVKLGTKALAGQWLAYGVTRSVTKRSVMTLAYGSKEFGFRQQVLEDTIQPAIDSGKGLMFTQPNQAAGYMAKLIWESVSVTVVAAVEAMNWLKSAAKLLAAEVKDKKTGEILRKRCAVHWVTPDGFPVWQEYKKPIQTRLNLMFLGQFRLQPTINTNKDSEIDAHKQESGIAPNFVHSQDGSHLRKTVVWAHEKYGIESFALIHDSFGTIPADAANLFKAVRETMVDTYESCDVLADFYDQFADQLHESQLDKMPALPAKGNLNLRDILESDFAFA

[3] = tested on: OneTaq polymerase; experiment: PCR-based screen and amplification of DNA containing unnatural base pairs, OneTaq (Example 1); format: biochemical; details: OneTaq
Method: (§1) The triphosphates of the 6 group were prepared from the previously reported nucleosides (Kubelka, T., Slavetinska, L., Eigner, V. and Hocek, M. Synthesis of 2,6-disubstituted pyridin-3-yl C-2′-deoxyribonucleosides through chemoselective transformations of bromo-chloropyridine C-nucleosides. Org. Biomol. Chem., 11, 4702-4718) according to Ludwig, J. and Eckstein, F. Rapid and efficient synthesis of nucleoside 5′-0-(1-thiotriphosphates), 5′-triphosphates and 2′,3′-cyclophosphorothioates using 2-chloro-4H-1,3,2-benzodioxaphosphorin-4-one. J. Org. Chem., 54, 631-635. The purity of all other triphosphates was confirmed by MALDI-TOF and UV-VIS. Taq and OneTaq DNA polymerases were purchased from New England Biolabs (Ipswich, Mass.). A mixture of dNTPs was purchased from Fermentas (Glen Burnie, Md.). SYBR Green I Nucleic Acid Gel Stain (10,000×) was purchased from Life Technologies (Carlsbad, Calif.). The synthesis of the DNA templates, D8 (Malyshev, D. A., Dhami, K., Quach, H. T., Lavergne, T., Ordoukhanian, P., Torkamani, A. and Romesberg, F. E. Efficient and sequence-independent replication of DNA containing a third base pair establishes a functional six-letter genetic alphabet. Proc. Natl. Acad. Sci. USA, 109, 12005-12010), used for screening rounds 1-5, and D6 (Malyshev, D. A., Seo, Y. J., Ordoukhanian, P. and Romesberg, F. E. PCR with an expanded genetic alphabet. J. Am. Chem. Soc., 131, 14620-14621), used for all other amplifications, was described previously. Sanger sequencing was carried out as described previously (Malyshev, D. A., Dhami, K., Quach, H. T., Lavergne, T., Ordoukhanian, P., Torkamani, A. and Romesberg, F. E. Efficient and sequence-independent replication of DNA containing a third base pair establishes a functional six-letter genetic alphabet. Proc. Natl. Acad. Sci. USA, 109, 12005-12010). Raw Sanger sequencing traces were used to determine the percent retention of the unnatural base pairs, which was converted to fidelity per doubling, as described (Malyshev, D. A., Dhami, K., Quach, H. T., Lavergne, T., Ordoukhanian, P., Torkamani, A. and Romesberg, F. E. Efficient and sequence-independent replication of DNA containing a third base pair establishes a functional six-letter genetic alphabet. Proc. Natl. Acad. Sci. USA, 109, 12005-12010; Malyshev, D. A., Seo, Y. J., Ordoukhanian, P. and Romesberg, F. E. PCR with an expanded genetic alphabet. J. Am. Chem. Soc., 131, 14620-14621).
(§2) All PCR amplifications were performed in a CFX Connect Real-Time PCR Detection System (Bio-Rad), in a total volume of 25 μL using the following conditions: 1× OneTaq reaction buffer, 0.5× Sybr Green I, MgSO4 adjusted to 4.0 mM, 0.2 mM of each dNTP, 50 μM of each unnatural triphosphate, […] of Primer1 and Primer2 (See Table 2), and 0.02 U/μl of the DNA polymerase. Other conditions specific for each round of screening are described in Table 3. Amplified products were purified using DNA Clean and Concentrator-5 spin columns from Zymo Research (Irvine, Calif.). After purification, the PCR products were sequenced on a 3730 DNA Analyzer (Applied Biosystems) to determine the retention of the unnatural base pair as described below. Fidelity was characterized from unnatural base pair (UBP) retention as determined by sequencing with Primer1 on a 3730 DNA Analyzer (Applied Biosystems).
(§3) Specific PCR assay conditions. PCR with the most promising UBPs was carried out with the conditions as described in Table 3. PCR products were further purified on […] gels, followed by single band excision and subsequent clean up using the Zymo Research Zymoclean Gel DNA Recovery Kit. After elution with 20 μl of water, the DNA concentration was measured using fluorescent dye binding (Quant-iT dsDNA HS Assay kit, Life Technologies), and purified amplicons were sequenced in triplicate with both Primer1 and Primer2 to determine UBP retention and thus amplification fidelity. […]

[4] = target: T1, Taq polymerase (Thermus aquaticus, UniProt P19821); experiment: PCR amplification assay to determine fidelity, Taq (Example 3); format: biochemical
T1 construct: purchased New England Biolabs (Ipswich, Mass.)
T1 sequence (P19821 whole entry): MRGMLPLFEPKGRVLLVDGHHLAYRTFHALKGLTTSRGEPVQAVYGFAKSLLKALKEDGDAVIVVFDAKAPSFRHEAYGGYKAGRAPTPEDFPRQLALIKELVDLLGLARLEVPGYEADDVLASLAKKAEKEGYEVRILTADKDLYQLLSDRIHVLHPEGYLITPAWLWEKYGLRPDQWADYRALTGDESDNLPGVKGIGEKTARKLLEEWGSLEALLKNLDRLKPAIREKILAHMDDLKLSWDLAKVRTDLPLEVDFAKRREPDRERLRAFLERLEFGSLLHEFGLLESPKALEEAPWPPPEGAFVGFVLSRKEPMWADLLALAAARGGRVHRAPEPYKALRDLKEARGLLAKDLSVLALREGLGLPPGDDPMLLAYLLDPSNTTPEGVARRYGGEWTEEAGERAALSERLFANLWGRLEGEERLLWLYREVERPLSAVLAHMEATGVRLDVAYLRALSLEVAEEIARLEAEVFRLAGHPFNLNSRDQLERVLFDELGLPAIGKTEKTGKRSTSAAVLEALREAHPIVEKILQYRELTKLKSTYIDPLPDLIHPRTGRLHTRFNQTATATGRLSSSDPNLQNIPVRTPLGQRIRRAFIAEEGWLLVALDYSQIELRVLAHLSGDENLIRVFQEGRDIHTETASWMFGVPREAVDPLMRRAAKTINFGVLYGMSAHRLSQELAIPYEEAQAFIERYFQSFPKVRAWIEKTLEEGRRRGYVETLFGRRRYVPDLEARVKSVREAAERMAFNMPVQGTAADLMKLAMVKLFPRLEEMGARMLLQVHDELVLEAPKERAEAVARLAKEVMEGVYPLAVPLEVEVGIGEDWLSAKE
Method: (§4) PCR assay. PCR amplifications were performed in a total volume of 25 μL and with conditions specific for each assay as described in Table 9. After amplification, a 5 μL aliquot was analyzed on a 6% non-denaturing PAGE gel ran along with 50 bp ladder (Life Technologies) to confirm amplicon size. The remaining solution was purified by spin-column (DNA Clean and Concentrator-5; Zymo Research, Irvine, Calif.), followed by 4% agarose gel, recovered with Zymoclean Gel DNA Recovery Kit (Zymo Research), quantified by fluorescent dye binding (Quant-iT dsDNA HS Assay kit, Life Technologies), and sequenced on a 3730 DNA Analyzer (Applied Biosystems). Fidelity was determined as the average % retention of the unnatural base pair per doubling as described below.
(§5) Determination of fidelity. The percent retention of an unnatural base pair (F) was measured using raw sequencing data and normalized to fidelities per doubling. Briefly, the presence of an unnatural nucleotide leads to a sharp termination of the sequencing profile, while mutation to a natural nucleotide results in “readthrough”. The extent of the “read-through” is thus inversely correlated with the retention of the unnatural base pair. To use the sequencing data as a quantitative measurement of PCR fidelity, we performed calibration experiments in the range of 50-100% retention of the unnatural base pair. Therefore, low retention (<50%) and high “read-through” make the quantification inaccurate.
(§6) Quantification of the high retention (>50%) was performed by adjusting the start and stop points for the Sequencing Analysis software (Applied Biosystems) and then determining the average signal intensity individually for each channel (A, C, G and T) for peaks within those defined points (35-45 nucleotides in length) before (section L) and S36 after (section R) the unnatural nucleotide. The R/L ratio was normalized using sequencing calibration plots to account for both noise in the sequencing chromatograms and the read-through in the control samples. […]

[5] = target: T1, Taq polymerase; experiment: PCR-based screen and amplification of DNA containing unnatural base pairs, Taq (Example 1); format: biochemical; details: Taq, 10 s Extension, 52 cycles, D6 template
Method: as §1, §2, §3

[6] = tested on: OneTaq; experiment: PCR amplification assay to determine fidelity, OneTaq (Example 3); format: biochemical
Method: as §4, §5, §6

[7] = 1 min Extension, 52 cycles, D6 template
[8] = OneTaq, standard PCR conditions

Question: With `Cc1ccc2c(=S)n([C@H]3C[C@H](O)[C@@H](COP(O)(=S)OP(=O)(O)OP(=O)(O)O)O3)ccc2c1` (some centres unmarked) [d(5SICS-αS)TP] as the molecule, how does the “amplification efficiency and fidelity of incorporation” value [1] read?
Answer: The value was “greater than 99%”.

Question: With `COc1cc(C)c(C#CCNC(=O)C(Cl)Cl)cc1[C@@H]1O[C@H](COP(=O)(O)OP(=O)(O)OP(=O)(O)O)[C@@H](O)[C@H]1O` [MMO2^PA] as the molecule, how does the “transcription into RNA” value [2] read?
Answer: The value was “high efficiency and fidelity”.

Question: With `COc1cc2ccccc2cc1[C@H]1C[C@H](O)[C@@H](COP(=O)(O)OP(=O)(O)OP(=O)(O)O)O1.O=P(O)(O)OP(=O)(O)OP(=O)(O)OC[C@H]1O[C@@H](n2ccc3ccsc3c2=S)C[C@@H]1O` [TPT3-NaM] as the molecule, how does the “Fidelity, %” value ([3]; 16 cycles, 1 min extension) read?
Answer: Its value is 99.92 ± 0.11%.

Question: What about the “Retention, %” value ([3]; 16 cycles, 1 min extension) of the same molecule?
Answer: The value was 99.23 ± 1.12%.

Question: And the Amplification ([3]; 16 cycles, 1 min extension, -^a = no amplification was detected)?
Answer: The Amplification was 1004.

Question: What about the “Amplification, ×10^12” value [3, 7] of the same molecule?
Answer: The value was 8.3 ×10^12.

Question: And the “Fidelity per Doubling, %” value [3, 7]?
Answer: Its value is 99.79 ± 0.03%.

Question: And the “Retention, %” value [3, 7]?
Answer: Its value is 91.2 ± 1.3%.

Question: What about the “Fidelity, %” value ([4]; Taq PCR (20 cycles), D6 template, dXTP with dNaMTP) of the same molecule?
Answer: The value was 99.7%.

Question: What about the “amplification efficiency relative to a natural base pair” value ([4]; Taq polymerase) of the same molecule?
Answer: The value was 2.5 fold lower.

Question: And the error rate ([4]; Taq polymerase)?
Answer: Its error rate is 10^−3.

Question: And the “Amplification, ×10^12” value [5]?
Answer: The value was 5.8 ×10^12.

Question: What about the “Fidelity per Doubling, %” value [5] of the same molecule?
Answer: The value was 99.66 ± 0.01%.

Question: What about the “Retention, %” value [5] of the same molecule?
Answer: Its value is 86.5 ± 0.5%.

Question: And the “Fidelity, %” value ([6]; OneTaq PCR (48 cycles), D6 template, dXTP with dNaMTP)?
Answer: The value was > 99.98%.

Question: And the “amplification efficiency relative to DNA containing just the natural base pairs” value [6, 8]?
Answer: Its value is 4 fold lower.

Question: And the error rate [6, 8]?
Answer: Its error rate is 10^−4 per nucleotide.
